The text below walks through data of patent publication US10953012B2, “Heterocyclic compounds for the inhibition of pask” (BioEnergenix LLC, priority 2011, dated 2021).

Assay [1] deals with PASK (UniProt #Q96RG2; residues 879-1323) (Homo sapiens (Human), UniProt Q96RG2). The assay can be described thus: PASK ATP Radiochemical Assay. The assay is classed as biochemical. Particulars: 33P-ATP radiochemical assay; read-out: IC50 Kinase Domain. Here is the method: PASK ATP Radiochemical Assay Purified PASK (UniProt #Q96RG2; human recombinant N-terminal GST tagged construct, residues 879-1323) from insect cells (final concentration 5 nM) is added to freshly prepared Base Reaction Buffer containing 20 mM HEPES (pH 7.5), 10 mM MgCl2, 1 mM EGTA, 0.02% Brij35, 0.02 mg/ml BSA, 0.1 mM Na3VO4, 2 mM DTT, 1% DMSO and Myelin Basic Protein (20 μM final). Test compounds in DMSO are then added and the mixture, followed by delivery of ^33P-ATP (specific activity 0.01 μCi/μl final) to initiate the reaction. The kinase reaction is incubated for 120 min at room temperature. The entire reaction mixture is washed through onto a P81 Phosphocellulose paper and washed three times for 10 minutes in 75 mM phosphoric acid and once in methanol prior to drying and scintillation counting.

In assay [2] the target is PASK (Homo sapiens (Human), UniProt Q96RG2). The assay can be described thus: PAS Kinase FRET Assay. The format is biochemical. As to conditions: TR-FRET assay; read-out: IC50 Kinase Domain. An outline of the steps:
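TR-FRET read-out (665/615 nm) of ULight-peptide phosphorylation by PASK, detected with Eu-labelled anti-phospho antibody. Compound, kinase and substrate/ATP reacted 2 h at 25 °C in the dark in 50 mM HEPES, 10 mM MgCl2, 1 mM EGTA, 0.01% Tween-20, 2 mM DTT. Eleven-point dilution series made at 4× final.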

For the next assay, the target named is CK2a2 (Homo sapiens (Human), UniProt P19784). In words: Biochemical Assay for CK2 Activity. As to conditions: 33P-ATP radiochemical assay; read-out: IC50 CK2 a2. Here is the method: Biochemical Assay for CK2 Activity
Purified CK2a2 (NP_001887; human full-length protein, GST tagged) from insect cells (final concentration 1.2 nM) is added to freshly prepared Base Reaction Buffer containing 20 mM Hepes (pH 7.5), 10 mM MgCl2, 1 mM EGTA, 0.02% Brij35, 0.02 mg/ml BSA, 0.1 mM Na3VO4, 2 mM DTT, 1% DMSO and CK2 sub [RRRDDDSDDD] (20 μM final). Test compounds in DMSO are then added and the mixture, followed by delivery of ^33P-ATP (specific activity 0.01 μCi/μl final) to initiate the reaction. The kinase reaction is incubated for 120 min at room temperature. The entire reaction mixture is washed through onto a P81 Phosphocellulose paper and washed three times for 10 minutes in 75 mM phosphoric acid and once in methanol prior to drying and scintillation counting.

Sequence of PASK (Homo sapiens (Human), UniProt Q96RG2) (Q96RG2 999-1251): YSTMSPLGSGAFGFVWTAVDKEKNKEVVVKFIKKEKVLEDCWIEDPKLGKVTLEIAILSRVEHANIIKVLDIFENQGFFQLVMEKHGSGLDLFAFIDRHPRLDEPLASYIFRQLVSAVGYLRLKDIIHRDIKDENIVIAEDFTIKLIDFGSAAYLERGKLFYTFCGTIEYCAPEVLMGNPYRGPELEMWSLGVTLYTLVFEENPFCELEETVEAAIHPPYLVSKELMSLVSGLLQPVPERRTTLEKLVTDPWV
Sequence of PASK (UniProt #Q96RG2; residues 879-1323) (Homo sapiens (Human), UniProt Q96RG2) (Q96RG2 879-1323): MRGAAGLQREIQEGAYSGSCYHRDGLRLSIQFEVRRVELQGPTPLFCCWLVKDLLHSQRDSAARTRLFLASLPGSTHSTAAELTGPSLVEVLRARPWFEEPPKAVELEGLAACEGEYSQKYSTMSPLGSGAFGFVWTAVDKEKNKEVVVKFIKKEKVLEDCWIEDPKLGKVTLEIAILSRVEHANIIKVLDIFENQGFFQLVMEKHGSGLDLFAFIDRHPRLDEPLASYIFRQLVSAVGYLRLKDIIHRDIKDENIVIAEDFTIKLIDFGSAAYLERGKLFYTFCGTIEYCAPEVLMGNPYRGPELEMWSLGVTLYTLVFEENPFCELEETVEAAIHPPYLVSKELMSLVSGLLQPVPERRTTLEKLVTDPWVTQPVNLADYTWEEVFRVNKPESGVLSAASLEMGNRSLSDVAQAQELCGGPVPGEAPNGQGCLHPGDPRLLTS
Sequence of CK2a2 (P19784 whole entry): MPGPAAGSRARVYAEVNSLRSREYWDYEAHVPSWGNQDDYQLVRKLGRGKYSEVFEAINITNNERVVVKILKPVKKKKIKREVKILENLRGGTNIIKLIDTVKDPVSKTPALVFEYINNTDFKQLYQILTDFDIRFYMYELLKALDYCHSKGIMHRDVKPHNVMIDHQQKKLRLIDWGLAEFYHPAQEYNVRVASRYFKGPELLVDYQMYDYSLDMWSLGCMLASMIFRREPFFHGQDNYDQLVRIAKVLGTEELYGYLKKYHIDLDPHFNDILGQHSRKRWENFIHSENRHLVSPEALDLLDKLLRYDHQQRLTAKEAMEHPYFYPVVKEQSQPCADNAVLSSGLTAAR

`CCCc1c(C)nn2c(=O)cc(-c3ccc(OC)cc3)[nH]c12` [Example 71, 5-(4-Methoxyphenyl)-2-methyl-3-propylpyrazolo[1,5-a]pyrimidin-7(4H)-one]: the IC50 is no more than 10 µM on PASK [1], no more than 10 µM on PASK [2] and no less than 10 µM at CK2a2.
With `COc1ccc(-c2cc(=O)n3ncc(-c4cccnc4)c3[nH]2)cc1` [Example 72, 5-(4-Methoxyphenyl)-3-(pyridin-3-yl)pyrazolo[1,5-a]pyrimidin-7(4H)-one], the IC50 at PASK [1], at PASK [2] and at CK2a2 was no more than 10 µM throughout.
For `Cc1nn2c(=O)cc(-c3ccc4ncccc4c3)[nH]c2c1Cc1ccccc1` [Example 73, 3-Benzyl-2-methyl-5-(quinolin-6-yl)pyrazolo[1,5-a]pyrimidin-7(4H)-one], the half-maximal inhibitory concentration (IC50) on PASK [1], on PASK [2] and on CK2a2 was no more than 10 µM in each case.
Take `Cc1nn2c(=O)cc(-c3ccc4c(c3)OCO4)[nH]c2c1Cc1cccc(Cl)c1` [Example 75, 3-(3-Chlorobenzyl)-5-(benzo[d][1,3]dioxol-5-yl)-2-methylpyrazolo[1,5-a]pyrimidin-7(4H)-one]: the IC50 on PASK [1], at PASK [2] and at CK2a2 was no more than 10 µM in each case.
On to `Cc1nn2c(=O)cc(-c3ccc4c(c3)OCO4)[nH]c2c1Cc1ccc(Cl)cc1` [Example 76, 3-(4-Chlorobenzyl)-5-(benzo[d][1,3]dioxol-5-yl)-2-methylpyrazolo[1,5-a]pyrimidin-7(4H)-one], for which the IC50 on PASK [1], on PASK [2] and on CK2a2 was no more than 10 µM each time.
In the case of `Cc1nn2c(=O)cc(-c3ccc4c(c3)OCCO4)[nH]c2c1-c1ccc(F)cc1` [Example 81, 5-(2,3-Dihydrobenzo[b][1,4]dioxin-6-yl)-3-(4-fluorophenyl)-2-methylpyrazolo[1,5-a]pyrimidin-7(4H)-one], the IC50 at PASK [1], at PASK [2] and on CK2a2 was no more than 10 µM throughout.
As for `COc1cccc(-c2cnn3c(=O)cc(-c4ccc5c(c4)OCCO5)[nH]c23)c1` [Example 92, 5-(2,3-Dihydrobenzo[b][1,4]dioxin-6-yl)-3-(3-methoxyphenyl)pyrazolo[1,5-a]pyrimidin-7(4H)-one], the half-maximal inhibitory concentration (IC50) on PASK [1], at PASK [2] and on CK2a2 was no more than 10 µM throughout.
Consider `O=c1cc(-c2ccc3c(c2)CCO3)[nH]c2c(-c3ccccn3)cnn12` [Example 96, 5-(2,3-Dihydrobenzofuran-5-yl)-3-(pyridin-2-yl)pyrazolo[1,5-a]pyrimidin-7(4H)-one], for which the IC50 on PASK [1], on PASK [2] and on CK2a2 was no more than 10 µM in each case.
As for `O=c1cc(-c2ccc3occc3c2)[nH]c2c(-c3ccccc3)cnn12` [Example 97, 5-(Benzofuran-5-yl)-3-phenylpyrazolo[1,5-a]pyrimidin-7(4H)-one], the IC50 at PASK [1], at PASK [2] and at CK2a2 was no more than 10 µM in each case.
On to `O=c1cc(-c2ccc3c(c2)CCO3)[nH]c2c(-c3ccccc3)cnn12` [Example 98, 5-(2,3-Dihydrobenzofuran-5-yl)-3-phenylpyrazolo[1,5-a]pyrimidin-7(4H)-one], for which the IC50 at PASK [1], at PASK [2] and at CK2a2 was no more than 10 µM each time.
On to `O=c1cc(-c2ccc3c(c2)CCO3)[nH]c2c(-c3cccnc3)cnn12` [Example 99, 5-(2,3-Dihydrobenzofuran-5-yl)-3-(pyridin-3-yl)pyrazolo[1,5-a]pyrimidin-7(4H)-one], for which the IC50 on PASK [1], on PASK [2] and at CK2a2 was no more than 10 µM each time.
In the case of `O=c1cc(-c2ccc3c(c2)OCO3)[nH]c2c(-c3cccnc3)c(O)nn12` [Example 100, 5-(Benzo[d][1,3]dioxol-5-yl)-2-hydroxy-3-(pyridin-3-yl)pyrazolo[1,5-a]pyrimidin-7(4H)-one], the IC50 at PASK [1], on PASK [2] and on CK2a2 was no more than 10 µM throughout.
With `O=c1cc(-c2ccc3c(c2)OCCO3)[nH]c2c(-c3ccccn3)c(O)nn12` [Example 102, 5-(2,3-Dihydrobenzo[b][1,4]dioxin-6-yl)-2-hydroxy-3-(pyridin-2-yl)pyrazolo[1,5-a]pyrimidin-7(4H)-one], the IC50 on PASK [1], on PASK [2] and at CK2a2 was no more than 10 µM in each case.
Regarding `O=c1cc(-c2ccc3c(c2)OCCO3)[nH]c2c(-c3ccccc3)c(O)nn12` [Example 103, 5-(2,3-Dihydrobenzo[b][1,4]dioxin-6-yl)-2-hydroxy-3-phenylpyrazolo[1,5-a]pyrimidin-7(4H)-one], the IC50 at PASK [1], on PASK [2] and on CK2a2 was no more than 10 µM in each case.
In the case of `O=C(c1cnn2c(=O)cc(-c3ccc4c(c3)OCCO4)[nH]c12)N1CCOCC1` [Example 106, 5-(2,3-Dihydrobenzo[b][1,4]dioxin-6-yl)-3-(morpholine-4-carbonyl)pyrazolo[1,5-a]pyrimidin-7(4H)-one], the IC50 on PASK [1], on PASK [2] and at CK2a2 was no more than 10 µM each time.
`CN1CCN(C(=O)c2cnn3c(=O)cc(-c4ccc5c(c4)OCCO5)[nH]c23)CC1` [Example 107, 5-(2,3-Dihydrobenzo[b][1,4]dioxin-6-yl)-3-(4-methylpiperazine-1-carbonyl)pyrazolo[1,5-a]pyrimidin-7(4H)-one]: the IC50 at PASK [1], on PASK [2] and on CK2a2 was no more than 10 µM in each case.
In the case of `O=C(NCc1ccccc1)c1cnn2c(=O)cc(-c3ccc4c(c3)OCCO4)[nH]c12` [Example 108, N-Benzyl-5-(2,3-dihydrobenzo[b][1,4]dioxin-6-yl)-7-oxo-4,7-dihydropyrazolo[1,5-a]pyrimidine-3-carboxamide], the IC50 on PASK [1], at PASK [2] and on CK2a2 was no more than 10 µM in each case.
For the molecule `O=c1cc(-c2ccc(Cl)cc2)[nH]c2c(-c3ccccn3)cnn12` [Example 109, 5-(4-Chlorophenyl)-3-(pyridin-2-yl)pyrazolo[1,5-a]pyrimidin-7(4H)-one], the IC50 at PASK [1], at PASK [2] and on CK2a2 was no more than 10 µM each time.
Turning to `COc1ccc(-c2cc(=O)n3ncc(-c4ccccn4)c3[nH]2)c(OC)c1` [Example 110, 5-(2,4-Dimethoxyphenyl)-3-(pyridin-2-yl)pyrazolo[1,5-a]pyrimidin-7(4H)-one], the IC50 at PASK [1], on PASK [2] and on CK2a2 was no more than 10 µM throughout.
`COc1ccc(-c2cc(=O)n3ncc(-c4ccccn4)c3[nH]2)cc1OC` [Example 111, 5-(3,4-Dimethoxyphenyl)-3-(pyridin-2-yl)pyrazolo[1,5-a]pyrimidin-7(4H)-one]: the IC50 on PASK [1], on PASK [2] and at CK2a2 was no more than 10 µM in each case.
Take `N#Cc1cnn2c(=O)cc(-c3ccc4c(c3)OCCO4)[nH]c12` [Example 113, 5-(2,3-Dihydrobenzo[b][1,4]dioxin-6-yl)-7-oxo-4,7-dihydropyrazolo[1,5-a]pyrimidine-3-carbonitrile]: the IC50 on PASK [1], at PASK [2] and on CK2a2 was no more than 10 µM in each case.
Turning to `NC(=O)c1cnn2c(=O)cc(-c3ccc4c(c3)OCCO4)[nH]c12` [Example 114, 5-(2,3-Dihydrobenzo[b][1,4]dioxin-6-yl)-7-oxo-4,7-dihydropyrazolo[1,5-a]pyrimidine-3-carboxamide], the IC50 at PASK [1], at PASK [2] and at CK2a2 was no more than 10 µM each time.
For `O=c1c2c([nH]c3c(-c4ccccn4)cnn13)-c1ccccc1CC2` [Example 116, 11-(Pyridin-2-yl)-5,6-dihydrobenzo[h]pyrazolo[5,1-b]quinazolin-7(12H)-one], the concentration for half-maximal inhibition (IC50) on PASK [1], on PASK [2] and at CK2a2 was no more than 10 µM throughout.
`O=c1cc(-c2ccc3c(c2)OCCO3)[nH]c2c(-c3ccccc3)c(C(F)(F)F)nn12` [Example 117, 5-(2,3-Dihydrobenzo[b][1,4]dioxin-6-yl)-3-phenyl-2-(trifluoromethyl)pyrazolo[1,5-a]pyrimidin-7(4H)-one]: the IC50 at PASK [1], on PASK [2] and at CK2a2 was no more than 10 µM in each case.
